The values below come from patent US10421774B2 (priority 2016, dated 2019).

The structures appear in SMILES notation. Like-named read-outs stand apart in the source and are kept apart here.

Experiment in all cases: microbe, parasite or virus in culture
Holding throughout (type): cell-based, HIV-1

The test system of experiment [1] is gag V370A/ΔT371 virus. As to conditions: for EC50: Human immunodeficiency virus 1, MT2, read-out: V370A/ΔT371 EC50. A digest of the protocol: (§1)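 Multiple-cycle assay in MT-2 cells infected with Renilla luciferase NL4-3 (Gag P373S background) carrying site-directed Gag A364V or V370A/ΔT371 changes, inocula normalized by luciferase signal. 10,000 cells/well, 3-fold compound dilutions, 1% DMSO, 4–5 days at 37°C; yield read as Renilla luciferase.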

For experiment [2], the system named is A364V site directed mutant virus. The conditions noted are these: for EC50: Human immunodeficiency virus 1, MT2, read-out: A364V EC50. The method, boiled down: as §1
Experiment [3] concerns NLRepRlucP373S recombinant wild type (WT) virus. A digest of the protocol:
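MT-2 cells infected with NLRepRlucP373S Renilla luciferase reporter virus (NL4-3, Gag P373S), inocula normalized by luciferase signal; compounds 3-fold serially diluted, 1% DMSO final. Virus yield read by Renilla luciferase after 4-5 days at 37 °C. EC50/EC90 from median effect equation; background = signal at NFV 3 μM.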

Experiment [4] relates to T332S/V362I/Pr R41G virus. As to conditions: for EC50: Human immunodeficiency virus 1, MT2, read-out: T332S/V362I/pr41G EC50. A digest of the protocol: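 Renilla luciferase NL4-3 reporter virus (Gag P373S background) carrying Gag T332S/V362I plus protease R41G, inoculum normalized by luciferase signal, infected MT-2 cells (10,000/well). Compounds 3-fold diluted, 1% DMSO final. After 4–5 days at 37 °C, virus yield measured as Renilla luciferase activity in a multiple-cycle assay.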

Setting [5] is: Human immunodeficiency virus 1, MT2, read-out: WT EC50.

As for `C=C(C)[C@@H]1CC[C@]2(NCCN3CCS(=O)(=O)CC3)CC[C@]3(C)[C@H](CC[C@@H]4[C@@]5(C)CC=C(C6=CCC(COc7ccc(C#N)cn7)(C(=O)O)CC6)C(C)(C)[C@@H]5CC[C@]43C)[C@@H]12` (stereo partly drawn) [Example 38, 1-(((5-cyanopyridin-2-yl)oxy)methyl)-4-((1R,3aS,5aR,5bR,7aR,11aS,11bR,13aR,13bR)-3a-((2-(1,1-dioxidothiomorpholino)ethyl)amino)-5a,5b,8,8,11a-pentamethyl-1-(prop-1-en-2-yl)-2,3,3a,4,5,5a,5b,6,7,7a,8,11,11a,11b,12,13,13a,13b-octadecahydro-1H-cyclopenta[a]chrysen-9-yl)cyclohex-3-ene-1-carboxylic acid], the EC50 is 232 nM in experiment [1], 29 nM in experiment [2], 2 nM in experiment [3] (setting [5]) and 232 nM in experiment [4].
On to `C=C(C)[C@@H]1CC[C@]2(NCCN3CCS(=O)(=O)CC3)CC[C@]3(C)[C@H](CC[C@@H]4[C@@]5(C)CC=C(C6=CCC(COc7cnnn7C(C)C)(C(=O)O)CC6)C(C)(C)[C@@H]5CC[C@]43C)[C@@H]12` (stereo partly drawn) [Example 17, 4-((1R,3aS,5aR,5bR,7aR,11aS,11bR,13aR,13bR)-3a-((2-(1,1-dioxidothiomorpholino)ethyl)amino)-5a,5b,8,8,11a-pentamethyl-1-(prop-1-en-2-yl)-2,3,3a,4,5,5a,5b,6,7,7a,8,11,11a,11b,12,13,13a,13b-octadecahydro-1H-cyclopenta[a]chrysen-9-yl)-1-(((1-isopropyl-1H-1,2,3-triazol-5-yl)oxy)methyl)cyclohex-3-ene-1-carboxylic acid], for which the EC50 in experiment [1] was 15 nM; in experiment [2], greater than 50 nM; in experiment [3] (setting [5]), 3 nM; in experiment [4], 15 nM.
Consider `C=C(C)[C@@H]1CC[C@]2(NC[C@H](O)C(=O)O)CC[C@]3(C)[C@H](CC[C@@H]4[C@@]5(C)CC=C(C6=CC[C@](COc7ncccc7C#N)(C(=O)O)CC6)C(C)(C)[C@@H]5CC[C@]43C)[C@@H]12` [Example A17, (R)-4-((1R,3aS,5aR,5bR,7aR,11aS,11bR,13aR,13bR)-3a-(((S)-2-carboxy-2-hydroxyethyl)amino)-5a,5b,8,8,11a-pentamethyl-1-(prop-1-en-2-yl)-2,3,3a,4,5,5a,5b,6,7,7a,8,11,11a,11b,12,13,13a,13b-octadecahydro-1H-cyclopenta[a]chrysen-9-yl)-1-(((3-cyanopyridin-2-yl)oxy)methyl)cyclohex-3-enecarboxylic acid], for which the EC50 in experiment [1] is 15 nM; in experiment [2], 3000 nM; in experiment [3] (setting [5]) it was 3 nM; in experiment [4] it was 15 nM.
For the molecule `C=C(C)[C@@H]1CC[C@]2(NCCN3CCS(=O)(=O)CC3)CC[C@]3(C)[C@H](CC[C@@H]4[C@@]5(C)CC=C(C6=CC[C@](COc7ncccc7C(=O)OC)(C(=O)O)CC6)C(C)(C)[C@@H]5CC[C@]43C)[C@@H]12` [Example 27], the EC50 in experiment [1], in experiment [2], in experiment [3] (setting [5]) and in experiment [4] was less than 50 nM in each case.
Take `C=C(C)[C@@H]1CC[C@]2(NCCN3CCS(=O)(=O)CC3)CC[C@]3(C)[C@H](CC[C@@H]4[C@@]5(C)CC=C(C6=CCC(COCc7ccccc7C#N)(C(=O)O)CC6)C(C)(C)[C@@H]5CC[C@]43C)[C@@H]12` (stereo partly shown) [reference compound]: the EC90 in experiment [1] (Human immunodeficiency virus 1, read-out: V370A/ΔT371 EC90) was determined as 2420 nM; in experiment [2] (Human immunodeficiency virus 1, read-out: A364V EC90), 228 nM; in experiment [4] (Human immunodeficiency virus 1, read-out: T332S/V362I/prR41G EC90) it was 2420 nM. Also, the EC50 in experiment [3] (Human immunodeficiency virus 1, read-out: WT EC50) was determined as 3 nM.
As for `C=C(C)[C@@H]1CC[C@]2(NCCN3CCS(=O)(=O)CC3)CC[C@]3(C)[C@H](CC[C@@H]4[C@@]5(C)CC=C(C6=CCC(COc7nccs7)(C(=O)O)CC6)C(C)(C)[C@@H]5CC[C@]43C)[C@@H]12` (stereo partly drawn) [Example 15, 4-((1R,3aS,5aR,5bR,7aR,11aS,11bR,13aR,13bR)-3a-((2-(1,1-dioxidothiomorpholino)ethyl)amino)-5a,5b,8,8,11a-pentamethyl-1-(prop-1-en-2-yl)-2,3,3a,4,5,5a,5b,6,7,7a,8,11,11a,11b,12,13,13a,13b-octadecahydro-1H-cyclopenta[a]chrysen-9-yl)-1-((thiazol-2-yloxy)methyl)cyclohex-3-ene-1-carboxylic acid], the EC50 in experiment [1] stood at 390 nM; in experiment [2] it was 2380 nM; in experiment [3] (setting [5]) it was 4 nM; in experiment [4], 390 nM.
Turning to `C=C(C)[C@@H]1CC[C@]2(NCCN3CCS(=O)(=O)CC3)CC[C@]3(C)[C@H](CC[C@@H]4[C@@]5(C)CC=C(C6=CC[C@@](COc7cc(C(N)=O)ccn7)(C(=O)O)CC6)C(C)(C)[C@@H]5CC[C@]43C)[C@@H]12` [Example 30, (S)-1-(((4-carbamoylpyridin-2-yl)oxy)methyl)-4-((1R,3aS,5aR,5bR,7aR,11aS,11bR,13aR,13bR)-3a-((2-(1,1-dioxidothiomorpholino)ethyl)amino)-5a,5b,8,8,11a-pentamethyl-1-(prop-1-en-2-yl)-2,3,3a,4,5,5a,5b,6,7,7a,8,11,11a,11b,12,13,13a,13b-octadecahydro-1H-cyclopenta[a]chrysen-9-yl)cyclohex-3-ene-1-carboxylic acid], the EC50 in experiment [1], in experiment [2], in experiment [3] (setting [5]) and in experiment [4] was less than 50 nM each time.
`C=C(C)[C@@H]1CC[C@]2(NCCN3CCS(=O)(=O)CC3)CC[C@]3(C)[C@H](CC[C@@H]4[C@@]5(C)CC=C(C6=CCC(CCOc7cc(C(=O)O)ccn7)(C(=O)O)CC6)C(C)(C)[C@@H]5CC[C@]43C)[C@@H]12` (stereo partly drawn) [Example A23, 2-(2-(1-carboxy-4-((1R,3aS,5aR,5bR,7aR,11aS,11bR,13aR,13bR)-3a-((2-(1,1-dioxidothiomorpholino)ethyl)amino)-5a,5b,8,8,11a-pentamethyl-1-(prop-1-en-2-yl)-2,3,3a,4,5,5a,5b,6,7,7a,8,11,11a,11b,12,13,13a,13b-octadecahydro-1H-cyclopenta[a]chrysen-9-yl)cyclohex-3-en-1-yl)ethoxy)isonicotinic acid]: the EC50 in experiment [1] was greater than 50 nM; in experiment [2] it was 333 nM; in experiment [3] (setting [5]) it was 7 nM; in experiment [4], 193 nM.
In the same order, the values of `C=C(C)[C@@H]1CC[C@]2(NCCN3CCS(=O)(=O)CC3)CC[C@]3(C)[C@H](CC[C@@H]4[C@@]5(C)CC=C(C6=CCC(COc7nccc8ccc(OC)cc78)(C(=O)O)CC6)C(C)(C)[C@@H]5CC[C@]43C)[C@@H]12` (stereo partly drawn) [Example 35, 4-((1R,3aS,5aR,5bR,7aR,11aS,11bR,13aR,13bR)-3a-((2-(1,1-dioxidothiomorpholino)ethyl)amino)-5a,5b,8,8,11a-pentamethyl-1-(prop-1-en-2-yl)-2,3,3a,4,5,5a,5b,6,7,7a,8,11,11a,11 b,12,13,13a,13b-octadecahydro-1H-cyclopenta[a]chrysen-9-yl)-1-(((7-methoxyisoquinolin-1-yl)oxy)methyl)cyclohex-3-ene-1-carboxylic acid] are greater than 50 nM, 24 nM, 7 nM and greater than 50 nM.
In the same order, the values of `C=C(C)[C@@H]1CC[C@]2(NCCN3CCS(=O)(=O)CC3)CC[C@]3(C)[C@H](CC[C@@H]4[C@@]5(C)CC=C(C6=CC[C@](COc7ncccc7Cl)(C(=O)O)CC6)C(C)(C)[C@@H]5CC[C@]43C)[C@@H]12` [Example 22] are 15 nM, 8 nM, 5 nM and 15 nM.
